# Measurements taken from paper PMC10287555, “Camonsertib in DNA damage response-deficient advanced solid tumors: phase 1 trial results” (Nature Medicine, 2023).
# Like-named read-outs stand apart in the source and are kept apart here.
# Assay: Plasma pharmacokinetics, cycle 1 day 1 (LC–MS/MS, non-compartmental analysis)
# Assay type: in vivo, human
# Details: for AUC(0-t) / Cmax / Tmax / AUC(0-inf) / half-life: human, plasma, oral; for Cmax: read-out: Cmax, geometric mean; for Tmax: read-out: Tmax, median; for AUC(0-inf): read-out: AUC0-INF, geometric mean
# Experimental: The plasma levels from cycle 1, day 1 of camonsertib were quantified using a validated liquid chromatography tandem–mass spectrometry (LC–MS/MS) method. […] All PK parameters were calculated using actual sampling times. Mean plasma concentration time profiles at given dose levels and regimens were plotted on semi-logarithmic plots using nominal times.
# [1] = Dose 5 mg, Tau 24 hr, cycle 1 day 1
# [2] = Dose 10 mg, Tau 24 hr, cycle 1 day 1
# [3] = Dose 20 mg, Tau 24 hr, cycle 1 day 1
# [4] = Dose 40 mg, Tau 12 hr, cycle 1 day 1
# [5] = Dose 40 mg, Tau 24 hr, cycle 1 day 1
# [6] = Dose 60 mg, Tau 12 hr, cycle 1 day 1
# [7] = Dose 80 mg, Tau 12 hr, cycle 1 day 1
# [8] = Dose 80 mg, Tau 24 hr, cycle 1 day 1
# [9] = Dose 100 mg, Tau 24 hr, cycle 1 day 1
# [10] = Dose 120 mg, Tau 24 hr, cycle 1 day 1
# [11] = Dose 160 mg, Tau 24 hr, cycle 1 day 1
# [12] = Dose 200 mg, Tau 24 hr, cycle 1 day 1
# [13] = 10 mg, Tau 24 hr, cycle 1 day 1
# [14] = 20 mg, Tau 24 hr, cycle 1 day 1
# [15] = 40 mg, Tau 12 hr, cycle 1 day 1
# [16] = 40 mg, Tau 24 hr, cycle 1 day 1
# [17] = 60 mg, Tau 12 hr, cycle 1 day 1
# [18] = 80 mg, Tau 12 hr, cycle 1 day 1
# [19] = 80 mg, Tau 24 hr, cycle 1 day 1
# [20] = 100 mg, Tau 24 hr, cycle 1 day 1
# [21] = 120 mg, Tau 24 hr, cycle 1 day 1
# [22] = 160 mg, Tau 24 hr, cycle 1 day 1
# [23] = 200 mg, Tau 24 hr, cycle 1 day 1
compound,measurement,setting,value
C[C@@H]1COCCN1c1cc([C@]2(O)C[C@H]3CC[C@@H](C2)O3)c2cnn(-c3cc[nH]n3)c2n1 [camonsertib],"AUC0-t/dose, geometric mean",[1],0.427 µg·h/mL/mg
same,"Cmax/dose, geometric mean",[1],0.098 µg/mL/mg
same,"AUC0-t/dose, geometric mean",[2],0.567 µg·h/mL/mg
same,"Cmax/dose, geometric mean",[2],0.105 µg/mL/mg
same,"AUC0-t/dose, geometric mean",[3],0.239 µg·h/mL/mg
same,"Cmax/dose, geometric mean",[3],0.04 µg/mL/mg
same,"AUC0-t/dose, geometric mean",[4],1.003 µg·h/mL/mg
same,"Cmax/dose, geometric mean",[4],0.095 µg/mL/mg
same,"AUC0-t/dose, geometric mean",[5],0.329 µg·h/mL/mg
same,"Cmax/dose, geometric mean",[5],0.029 µg/mL/mg
same,"AUC0-t/dose, geometric mean",[6],0.444 µg·h/mL/mg
same,"Cmax/dose, geometric mean",[6],0.055 µg/mL/mg
same,"AUC0-t/dose, geometric mean",[7],0.527 µg·h/mL/mg
same,"Cmax/dose, geometric mean",[7],0.038 µg/mL/mg
same,"AUC0-t/dose, geometric mean",[8],0.254 µg·h/mL/mg
same,"Cmax/dose, geometric mean",[8],0.071 µg/mL/mg
same,"AUC0-t/dose, geometric mean",[9],0.3 µg·h/mL/mg
same,"Cmax/dose, geometric mean",[9],0.052 µg/mL/mg
same,"AUC0-t/dose, geometric mean",[10],0.246 µg·h/mL/mg
same,"Cmax/dose, geometric mean",[10],0.044 µg/mL/mg
same,"AUC0-t/dose, geometric mean",[11],0.256 µg·h/mL/mg
same,"Cmax/dose, geometric mean",[11],0.046 µg/mL/mg
same,"AUC0-t/dose, geometric mean",[12],0.273 µg·h/mL/mg
same,"Cmax/dose, geometric mean",[12],0.047 µg/mL/mg
same,Accumulation,after repeated dosing,no accumulation
same,Increases in Cmax and AUC with dose,dose range 5–200 mg QD,linear
same,AUC(0-t),"5 mg, Tau 24 hr, cycle 1 day 1, read-out: AUC0-12, geometric mean",1800 ng·h/mL
same,AUC(0-t),"5 mg, Tau 24 hr, cycle 1 day 1, read-out: AUC0-t, geometric mean",2100 ng·h/mL
same,Cmax,"5 mg, Tau 24 hr, cycle 1 day 1",500 ng/mL
same,Tmax,"5 mg, Tau 24 hr, cycle 1 day 1",1.17 h
same,AUC(0-t),"10 mg, Tau 24 hr, cycle 1 day 1, read-out: AUC0-12, geometric mean",4400 ng·h/mL
same,AUC(0-t),"10 mg, Tau 24 hr, cycle 1 day 1, read-out: AUC0-t, geometric mean",5700 ng·h/mL
same,Cmax,[13],1100 ng/mL
same,Tmax,[13],1 h
same,AUC(0-t),"20 mg, Tau 24 hr, cycle 1 day 1, read-out: AUC0-12, geometric mean",2800 ng·h/mL
same,AUC(0-t),"20 mg, Tau 24 hr, cycle 1 day 1, read-out: AUC0-t, geometric mean",4800 ng·h/mL
same,Cmax,[14],800 ng/mL
same,Tmax,[14],10.7 h
same,AUC(0-t),"40 mg, Tau 12 hr, cycle 1 day 1, read-out: AUC0-12, geometric mean",23400 ng·h/mL
same,AUC(0-t),"40 mg, Tau 12 hr, cycle 1 day 1, read-out: AUC0-t, geometric mean",40100 ng·h/mL
same,Cmax,[15],3800 ng/mL
same,Tmax,[15],1.96 h
same,AUC(0-t),"40 mg, Tau 24 hr, cycle 1 day 1, read-out: AUC0-12, geometric mean",4700 ng·h/mL
same,AUC(0-t),"40 mg, Tau 24 hr, cycle 1 day 1, read-out: AUC0-t, geometric mean",13200 ng·h/mL
same,Cmax,[16],1200 ng/mL
same,Tmax,[16],22.1 h
same,AUC(0-t),"60 mg, Tau 12 hr, cycle 1 day 1, read-out: AUC0-12, geometric mean",16900 ng·h/mL
same,AUC(0-t),"60 mg, Tau 12 hr, cycle 1 day 1, read-out: AUC0-t, geometric mean",26600 ng·h/mL
same,Cmax,[17],3300 ng/mL
same,Tmax,[17],1.55 h
same,AUC(0-t),"80 mg, Tau 12 hr, cycle 1 day 1, read-out: AUC0-12, geometric mean",21400 ng·h/mL
same,AUC(0-t),"80 mg, Tau 12 hr, cycle 1 day 1, read-out: AUC0-t, geometric mean",42100 ng·h/mL
same,Cmax,[18],3000 ng/mL
same,Tmax,[18],2.17 h
same,AUC(0-t),"80 mg, Tau 24 hr, cycle 1 day 1, read-out: AUC0-12, geometric mean",18700 ng·h/mL
same,AUC(0-t),"80 mg, Tau 24 hr, cycle 1 day 1, read-out: AUC0-t, geometric mean",20300 ng·h/mL
same,Cmax,[19],5700 ng/mL
same,Tmax,[19],1 h
same,AUC(0-t),"100 mg, Tau 24 hr, cycle 1 day 1, read-out: AUC0-12, geometric mean",24800 ng·h/mL
same,AUC(0-t),"100 mg, Tau 24 hr, cycle 1 day 1, read-out: AUC0-t, geometric mean",30200 ng·h/mL
same,Cmax,[20],5200 ng/mL
same,Tmax,[20],1.54 h
same,AUC(0-t),"120 mg, Tau 24 hr, cycle 1 day 1, read-out: AUC0-12, geometric mean",23900 ng·h/mL
same,AUC(0-t),"120 mg, Tau 24 hr, cycle 1 day 1, read-out: AUC0-t, geometric mean",29500 ng·h/mL
same,Cmax,[21],5300 ng/mL
same,Tmax,[21],2.03 h
same,AUC(0-t),"160 mg, Tau 24 hr, cycle 1 day 1, read-out: AUC0-12, geometric mean",34800 ng·h/mL
same,AUC(0-t),"160 mg, Tau 24 hr, cycle 1 day 1, read-out: AUC0-t, geometric mean",41000 ng·h/mL
same,Cmax,[22],7300 ng/mL
same,Tmax,[22],1.21 h
same,AUC(0-t),"200 mg, Tau 24 hr, cycle 1 day 1, read-out: AUC0-12, geometric mean",44700 ng·h/mL
same,AUC(0-t),"200 mg, Tau 24 hr, cycle 1 day 1, read-out: AUC0-t, geometric mean",54600 ng·h/mL
same,Cmax,[23],9500 ng/mL
same,Tmax,[23],1 h
same,AUC(0-inf),[1],2300 ng·h/mL
same,half-life,"Dose 5 mg, Tau 24 hr, cycle 1 day 1, read-out: Half-life, geometric mean (converted)",5.87 h
same,AUC(0-inf),[2],6600 ng·h/mL
same,half-life,"Dose 10 mg, Tau 24 hr, cycle 1 day 1, read-out: Half-life, geometric mean (converted)",8.5 h
same,AUC(0-inf),[3],3100 ng·h/mL
same,half-life,"Dose 20 mg, Tau 24 hr, cycle 1 day 1, read-out: Half-life, geometric mean (converted)",4.18 h
same,AUC(0-inf),[4],153000 ng·h/mL
same,AUC(0-inf),[6],66100 ng·h/mL
same,AUC(0-inf),[8],21000 ng·h/mL
same,half-life,"Dose 80 mg, Tau 24 hr, cycle 1 day 1, read-out: Half-life, geometric mean (converted)",4.08 h
same,AUC(0-inf),[9],32300 ng·h/mL
same,half-life,"Dose 100 mg, Tau 24 hr, cycle 1 day 1, read-out: Half-life, geometric mean (converted)",5.67 h
same,AUC(0-inf),[10],31300 ng·h/mL
same,half-life,"Dose 120 mg, Tau 24 hr, cycle 1 day 1, read-out: Half-life, geometric mean (converted)",6.21 h
same,AUC(0-inf),[11],45900 ng·h/mL
same,half-life,"Dose 160 mg, Tau 24 hr, cycle 1 day 1, read-out: Half-life, geometric mean (converted)",5.97 h
same,AUC(0-inf),[12],58900 ng·h/mL
same,half-life,"Dose 200 mg, Tau 24 hr, cycle 1 day 1, read-out: Half-life, geometric mean (converted)",6.31 h
same,half-life,"across all QD dose levels, read-out: Median half-life (converted)",5.8 h
same,Doses at which plasma exposures achieved predicted efficacious exposures,in vivo,> 100 mg QD
same,PK variability,intra-patient and inter-patient,low intra-patient and inter-patient variability
